Test system: MV-4-11 cells
Assay: Gene expression microarray analysis (Affymetrix PrimeView) and GSEA
Type: cell-based, human
Parameters: RFU PODN (11730768_x_at) / Fold change /veh PODN (11730768_x_at) / RFU LINC00158 (11744669_a_at) / Fold change /veh LINC00158 (11744669_a_at) / RFU DUSP10 (11751237_a_at) / Fold change /veh DUSP10 (11751237_a_at) / RFU ID3 (11757404_x_at) / Fold change /veh ID3 (11757404_x_at) / RFU PLEKHG5 (11737974_s_at) / Fold change /veh PLEKHG5 (11737974_s_at) / RFU LRRC4B (11730491_at) / Fold change /veh LRRC4B (11730491_at) / RFU GIMAP4 (11747438_a_at) / Fold change /veh GIMAP4 (11747438_a_at) / RFU KRT8 (11758183_x_at) / Fold change /veh KRT8 (11758183_x_at) / RFU CNN1 (11734310_a_at) / Fold change /veh CNN1 (11734310_a_at) / RFU VPS37D (11726825_at) / Fold change /veh VPS37D (11726825_at) / RFU C10orf10 (11716522_x_at) / Fold change /veh C10orf10 (11716522_x_at) / RFU KIR2DL2 /// KIR2DL4 /// KIR2DL5A /// KIR2DL5B /// KIR2DS1 /// KIR2DS2 /// KIR2DS3 /// KIR2DS4 /// KIR3DL3 /// KIR3DL3 /// KIR3DS1 (11738374_at) / Fold change /veh KIR2DL2 /// KIR2DL4 /// KIR2DL5A /// KIR2DL5B /// KIR2DS1 /// KIR2DS2 /// KIR2DS3 /// KIR2DS4 /// KIR3DL3 /// KIR3DL3 /// KIR3DS1 (11738374_at) / RFU C1QL1 (11718748_at) / Fold change /veh C1QL1 (11718748_at) / RFU TMPRSS4 (11747572_a_at) / Fold change /veh TMPRSS4 (11747572_a_at) / RFU HAMP (11756126_x_at) / Fold change /veh HAMP (11756126_x_at) / RFU RNFT2 (11725882_a_at) / Fold change /veh RNFT2 (11725882_a_at) / RFU NR4A2 (11747474_a_at) / Fold change /veh NR4A2 (11747474_a_at) / RFU ABCC12 (11746883_a_at) / Fold change /veh ABCC12 (11746883_a_at) / RFU TMEM136 (11760407_x_at) / Fold change /veh TMEM136 (11760407_x_at) / RFU CLDN22 /// WWC2 (11732394_at) / Fold change /veh CLDN22 /// WWC2 (11732394_at) / RFU HLA-DPB1 (11760878_x_at) / Fold change /veh HLA-DPB1 (11760878_x_at) / RFU SPINT1 (11716480_a_at) / Fold change /veh SPINT1 (11716480_a_at) / RFU GAP43 (11754022_s_at) / Fold change /veh GAP43 (11754022_s_at) / RFU A4GNT (11735810_at) / Fold change /veh A4GNT (11735810_at) / RFU PRB3 (11715151_x_at) / Fold change /veh PRB3 (11715151_x_at) / RFU TUBB4B (11761932_at) / Fold change /veh TUBB4B (11761932_at) / RFU CAPN14 (11732068_a_at) / Fold change /veh CAPN14 (11732068_a_at) / RFU TMCC2 (11721928_a_at) / Fold change /veh TMCC2 (11721928_a_at) / RFU IRGQ (11745062_a_at) / Fold change /veh IRGQ (11745062_a_at) / RFU FAM174B (11720279_a_at) / Fold change /veh FAM174B (11720279_a_at) / RFU TMPRSS4 (11748680_a_at) / Fold change /veh TMPRSS4 (11748680_a_at) / RFU FAM212B (11763350_a_at) / Fold change /veh FAM212B (11763350_a_at) / RFU PLEKHG5 (11743358_a_at) / Fold change /veh PLEKHG5 (11743358_a_at) / RFU ZSCAN30 (11745921_a_at) / Fold change /veh ZSCAN30 (11745921_a_at) / RFU CMKLR1 (11741424_a_at) / Fold change /veh CMKLR1 (11741424_a_at) / RFU LOC101060620 /// MAPK8IP1 (11723275_at) / Fold change /veh LOC101060620 /// MAPK8IP1 (11723275_at) / RFU SPTSSB (11747773_x_at) / Fold change /veh SPTSSB (11747773_x_at) / RFU PRSS12 (11739890_at) / Fold change /veh PRSS12 (11739890_at) / RFU BIN1 (11741810_x_at) / Fold change /veh BIN1 (11741810_x_at) / RFU WNT11 (11732464_a_at) / Fold change /veh WNT11 (11732464_a_at) / RFU C10orf10 (11716521_a_at) / Fold change /veh C10orf10 (11716521_a_at) / RFU C5orf56 (11738089_at) / Fold change /veh C5orf56 (11738089_at) / RFU CYB561 (11721691_x_at) / Fold change /veh CYB561 (11721691_x_at) / RFU ANKRD19P (11752326_a_at) / Fold change /veh ANKRD19P (11752326_a_at) / RFU OR2T12 /// OR2T33 /// OR2T8 (11738714_s_at) / Fold change /veh OR2T12 /// OR2T33 /// OR2T8 (11738714_s_at) / RFU VCAN (11748164_a_at) / Fold change /veh VCAN (11748164_a_at) / RFU JSRP1 (11732532_at) / Fold change /veh JSRP1 (11732532_at) / RFU KRTAP10-11 (11738290_x_at) / Fold change /veh KRTAP10-11 (11738290_x_at) / RFU MYO3A (11730013_a_at) / Fold change /veh MYO3A (11730013_a_at) / RFU EBF3 (11725865_a_at) / Fold change /veh EBF3 (11725865_a_at) / RFU CAMK2N1 (11719241_x_at) / Fold change /veh CAMK2N1 (11719241_x_at) / RFU C5orf56 (11738088_a_at) / Fold change /veh C5orf56 (11738088_a_at) / RFU OLFML3 (11715873_a_at) / Fold change /veh OLFML3 (11715873_a_at) / RFU LOC100653217 /// NTM (11731650_a_at) / Fold change /veh LOC100653217 /// NTM (11731650_a_at) / RFU MAPK11 (11762145_a_at) / Fold change /veh MAPK11 (11762145_a_at) / RFU FIZ1 (11724087_x_at) / Fold change /veh FIZ1 (11724087_x_at) / RFU OASL (11726364_x_at) / Fold change /veh OASL (11726364_x_at) / RFU SOX15 (11748057_x_at) / Fold change /veh SOX15 (11748057_x_at) / RFU CD79A (11719716_a_at) / Fold change /veh CD79A (11719716_a_at) / RFU HIST1H1D (11736915_at) / Fold change /veh HIST1H1D (11736915_at) / RFU CASKIN2 (11723855_a_at) / Fold change /veh CASKIN2 (11723855_a_at) / RFU LOC730098 (11760151_x_at) / Fold change /veh LOC730098 (11760151_x_at) / RFU OR4N2 (11742367_at) / Fold change /veh OR4N2 (11742367_at) / RFU PRRT2 (11749266_a_at) / Fold change /veh PRRT2 (11749266_a_at) / RFU SNX32 (11753110_a_at) / Fold change /veh SNX32 (11753110_a_at) / RFU CDHR5 (11726645_a_at) / Fold change /veh CDHR5 (11726645_a_at) / RFU RCAN1 (11760418_a_at) / Fold change /veh RCAN1 (11760418_a_at) / RFU FAM167A (11723789_a_at) / Fold change /veh FAM167A (11723789_a_at) / RFU FAM26E (11764081_at) / Fold change /veh FAM26E (11764081_at) / RFU ISYNA1 (11749810_s_at) / Fold change /veh ISYNA1 (11749810_s_at) / RFU ACY1 (11761880_at) / Fold change /veh ACY1 (11761880_at) / RFU 11764098_at / Fold change /veh 11764098_at / RFU SAMD14 (11745864_x_at) / Fold change /veh SAMD14 (11745864_x_at) / RFU NPB (11741838_a_at) / Fold change /veh NPB (11741838_a_at) / RFU TMPRSS6 (11731388_a_at) / Fold change /veh TMPRSS6 (11731388_a_at) / RFU KRTAP10-2 (11738614_at) / Fold change /veh KRTAP10-2 (11738614_at) / RFU ARHGAP8 /// PRR5-ARHGAP8 (11727945_x_at) / Fold change /veh ARHGAP8 /// PRR5-ARHGAP8 (11727945_x_at) / RFU KRTAP5-7 /// NADSYN1 (11734609_at) / Fold change /veh KRTAP5-7 /// NADSYN1 (11734609_at) / RFU RASL12 (11751679_a_at) / Fold change /veh RASL12 (11751679_a_at) / RFU CDKN2B (11736163_a_at) / Fold change /veh CDKN2B (11736163_a_at) / RFU PRF1 (11729649_at) / Fold change /veh PRF1 (11729649_at) / RFU, ZNF638 /// ZNF638-IT1 / Fold change vs veh, ZNF638 /// ZNF638-IT1 / RFU, PANK3 / Fold change vs veh, PANK3 / RFU, SH3YL1 / Fold change vs veh, SH3YL1 / RFU, ZEB2 / Fold change vs veh, ZEB2 / RFU, NRIP1 / Fold change vs veh, NRIP1 / RFU, PTTG1IP / Fold change vs veh, PTTG1IP / RFU, CAPN2 / Fold change vs veh, CAPN2 / RFU, MED14 / Fold change vs veh, MED14 / RFU, SNORA58 / Fold change vs veh, SNORA58 / RFU, C1orf63 / Fold change vs veh, C1orf63 / RFU, LRRFIP1 / Fold change vs veh, LRRFIP1 / RFU, NDUFAF7 / Fold change vs veh, NDUFAF7 / RFU, SLC12A2 / Fold change vs veh, SLC12A2 / RFU, IBTK / Fold change vs veh, IBTK / RFU, ESF1 / Fold change vs veh, ESF1 / Fold change vs veh, TMEM50B / RFU, TAOK1 / Fold change vs veh, TAOK1 / RFU, ACBD3 / Fold change vs veh, ACBD3 / RFU, TMA16 / Fold change vs veh, TMA16 / RFU, RWDD3 / Fold change vs veh, RWDD3 / RFU, BCAT1 / Fold change vs veh, BCAT1 / RFU, EDEM3 / Fold change vs veh, EDEM3 / RFU, TMEM33 / Fold change vs veh, TMEM33 / RFU, WDR75 / Fold change vs veh, WDR75 / RFU, AHCTF1 / Fold change vs veh, AHCTF1 / RFU, TFRC / Fold change vs veh, TFRC / RFU, ZDHHC17 / Fold change vs veh, ZDHHC17 / RFU, NOM1 / Fold change vs veh, NOM1 / RFU, ARL8B / Fold change vs veh, ARL8B / RFU, ZBTB11 / Fold change vs veh, ZBTB11 / RFU, TAMM41 / Fold change vs veh, TAMM41 / RFU, KIAA1704 /// LOC100996395 / Fold change vs veh, KIAA1704 /// LOC100996395 / RFU, ING1 / Fold change vs veh, ING1 / RFU, TRMT61B / Fold change vs veh, TRMT61B / RFU, FUBP3 / Fold change vs veh, FUBP3 / RFU, TP53 / Fold change vs veh, TP53 / RFU, TNKS2 / Fold change vs veh, TNKS2 / RFU, ZFP14 / Fold change vs veh, ZFP14 / RFU, ACTR2 / Fold change vs veh, ACTR2 / RFU, PPP3R1 / Fold change vs veh, PPP3R1 / RFU, PIK3R1 / Fold change vs veh, PIK3R1 / RFU, HNRNPA1 / Fold change vs veh, HNRNPA1 / RFU, RNF170 / Fold change vs veh, RNF170 / RFU, ZNF28 / Fold change vs veh, ZNF28 / RFU, RNGTT / Fold change vs veh, RNGTT / RFU, OGT / Fold change vs veh, OGT / RFU, BRD1 / Fold change vs veh, BRD1 / RFU, MARS / Fold change vs veh, MARS / RFU, ZNF655 / Fold change vs veh, ZNF655 / RFU, FAHD1 / Fold change vs veh, FAHD1 / RFU, BDP1 / Fold change vs veh, BDP1 / RFU, LRRCC1 / Fold change vs veh, LRRCC1 / RFU, ARID1A / Fold change vs veh, ARID1A / RFU, ZNF146 / Fold change vs veh, ZNF146 / RFU, ZNF330 / Fold change vs veh, ZNF330 / RFU, GPN3 / Fold change vs veh, GPN3 / RFU, C9orf123 / Fold change vs veh, C9orf123 / RFU, N4BP2L2 / Fold change vs veh, N4BP2L2 / RFU, ARFIP1 / Fold change vs veh, ARFIP1 / RFU, FAM179B / Fold change vs veh, FAM179B / RFU, BCL10 / Fold change vs veh, BCL10 / RFU, UHRF1BP1L / Fold change vs veh, UHRF1BP1L / RFU, BET1 / Fold change vs veh, BET1 / RFU, CNOT2 / Fold change vs veh, CNOT2 / RFU, ZNF268 / Fold change vs veh, ZNF268 / Fold change vs veh, ZNF507 / RFU, DGCR2 / Fold change vs veh, DGCR2 / RFU, WDSUB1 / Fold change vs veh, WDSUB1 / Fold change vs veh, HSP90B1 /// MIR3652 / RFU, ADSS / Fold change vs veh, ADSS / RFU, GK / Fold change vs veh, GK / RFU, ZNF148 / Fold change vs veh, ZNF148 / RFU, TAF9 / Fold change vs veh, TAF9 / RFU, SLC1A5 / Fold change vs veh, SLC1A5 / RFU, SLMO2 / Fold change vs veh, SLMO2 / RFU, ABCC4 / Fold change vs veh, ABCC4 / RFU, LOC101060439 /// RAP1B / Fold change vs veh, LOC101060439 /// RAP1B / RFU, RFX7 / Fold change vs veh, RFX7 / RFU, GTPBP10 / Fold change vs veh, GTPBP10 / RFU, CNEP1R1 / Fold change vs veh, CNEP1R1 / RFU, BIVM-ERCC5 /// ERCC5 / Fold change vs veh, BIVM-ERCC5 /// ERCC5 / RFU, ILF3 / Fold change vs veh, ILF3 / RFU 11762660_at / Fold change /veh 11762660_at / RFU VCAN (11757783_s_at) / Fold change /veh VCAN (11757783_s_at) / RFU DDX43 (11728927_at) / Fold change /veh DDX43 (11728927_at) / RFU KRT8 (11758188_x_at) / Fold change /veh KRT8 (11758188_x_at) / RFU NKD1 (11759106_at) / Fold change /veh NKD1 (11759106_at) / RFU SRD5A1 (11742802_a_at) / Fold change /veh SRD5A1 (11742802_a_at) / RFU TPSAB1 /// TPSB2 (11721975_s_at) / Fold change /veh TPSAB1 /// TPSB2 (11721975_s_at) / RFU GSTM3 (11746129_a_at) / Fold change /veh GSTM3 (11746129_a_at) / RFU IL23R (11737362_x_at) / Fold change /veh IL23R (11737362_x_at) / RFU TMEM51 (11727254_a_at) / Fold change /veh TMEM51 (11727254_a_at) / RFU PIWIL2 (11732686_x_at) / Fold change /veh PIWIL2 (11732686_x_at) / RFU ORM1 (11744905_x_at) / Fold change /veh ORM1 (11744905_x_at) / RFU CCDC152 (11743942_at) / Fold change /veh CCDC152 (11743942_at) / RFU ECM1 (11717891_a_at) / Fold change /veh ECM1 (11717891_a_at) / RFU IL23R (11748794_a_at) / Fold change /veh IL23R (11748794_a_at) / RFU TNFAIP8L3 (11732012_x_at) / Fold change /veh TNFAIP8L3 (11732012_x_at) / RFU MBOAT4 (11741988_at) / Fold change /veh MBOAT4 (11741988_at) / RFU 11764193_at / Fold change /veh 11764193_at / RFU TMEM53 (11763286_at) / Fold change /veh TMEM53 (11763286_at) / RFU MAGEB2 (11727129_at) / Fold change /veh MAGEB2 (11727129_at) / RFU TMEM200A (11744735_a_at) / Fold change /veh TMEM200A (11744735_a_at) / RFU CCDC152 (11751479_a_at) / Fold change /veh CCDC152 (11751479_a_at) / RFU FAM211A (11726209_a_at) / Fold change /veh FAM211A (11726209_a_at) / RFU RGS16 (11746705_a_at) / Fold change /veh RGS16 (11746705_a_at) / RFU VCAN (11755009_s_at) / Fold change /veh VCAN (11755009_s_at) / RFU RHOB (11743442_s_at) / Fold change /veh RHOB (11743442_s_at) / RFU RGS16 (11720943_a_at) / Fold change /veh RGS16 (11720943_a_at) / RFU RGS16 (11720944_at) / Fold change /veh RGS16 (11720944_at) / RFU, VPS4B / Fold change vs veh, VPS4B / RFU, CREB1 / Fold change vs veh, CREB1 / RFU, DNAJC13 / Fold change vs veh, DNAJC13 / RFU, GNAQ / Fold change vs veh, GNAQ / RFU, CDK5R1 / Fold change vs veh, CDK5R1 / RFU, ZRANB3 / Fold change vs veh, ZRANB3 / RFU, CUL4A / Fold change vs veh, CUL4A / RFU, CCNY / Fold change vs veh, CCNY / RFU, UFL1 / Fold change vs veh, UFL1 / RFU, COG3 / Fold change vs veh, COG3 / RFU, DIAPH2 / Fold change vs veh, DIAPH2 / RFU, SKA2 / Fold change vs veh, SKA2 / RFU, AFF3 / Fold change vs veh, AFF3 / RFU, LMF1 / Fold change vs veh, LMF1 / RFU, IPO11 / Fold change vs veh, IPO11 / RFU, DFFB / Fold change vs veh, DFFB / RFU, FOXP1 / Fold change vs veh, FOXP1 / RFU, CARD8 / Fold change vs veh, CARD8 / RFU, STRN3 / Fold change vs veh, STRN3 / RFU, ADK / Fold change vs veh, ADK / RFU, RASSF2 / Fold change vs veh, RASSF2 / RFU, WIPF1 / Fold change vs veh, WIPF1 / RFU, LARP1B / Fold change vs veh, LARP1B / RFU, RASA1 / Fold change vs veh, RASA1 / RFU, RB1 / Fold change vs veh, RB1 / RFU, PPFIA1 / Fold change vs veh, PPFIA1 / RFU, MAT2A / Fold change vs veh, MAT2A / RFU, CCT5 / Fold change vs veh, CCT5 / RFU, WDR92 / Fold change vs veh, WDR92 / RFU, CUX1 / Fold change vs veh, CUX1 / RFU, TTC7A / Fold change vs veh, TTC7A / RFU, TMEM135 / Fold change vs veh, TMEM135 / RFU, DEPTOR / Fold change vs veh, DEPTOR / RFU, CPM / Fold change vs veh, CPM / RFU, DNAJB6 / Fold change vs veh, DNAJB6 / RFU, CACNA2D3 / Fold change vs veh, CACNA2D3 / RFU, DTX4 / Fold change vs veh, DTX4 / RFU, TFCP2 / Fold change vs veh, TFCP2 / RFU, GMCL1 /// GMCL1P1 / Fold change vs veh, GMCL1 /// GMCL1P1 / RFU, AEBP2 / Fold change vs veh, AEBP2 / RFU, SNHG1 /// SNORD22 /// SNORD25 /// SNORD26 /// SNORD27 /// SNORD28 /// SNORD29 /// SNORD31 / Fold change vs veh, SNHG1 /// SNORD22 /// SNORD25 /// SNORD26 /// SNORD27 /// SNORD28 /// SNORD29 /// SNORD31 / Fold change (Aza/veh), C12orf56 (ProbeSet 11735607_a_at) / Fold change (ACY-1035/veh), C12orf56 (ProbeSet 11735607_a_at) / Fold change (Aza/veh), FGFR1OP (ProbeSet 11751329_s_at) / Fold change (ACY-1035/veh), FGFR1OP (ProbeSet 11751329_s_at) / Fold change (Aza/veh), VPS36 (ProbeSet 11739960_a_at) / Fold change (ACY-1035/veh), VPS36 (ProbeSet 11739960_a_at) / RFU SYPL1 (11715823_x_at) / Fold change /veh SYPL1 (11715823_x_at) / RFU IGFBP7 (11715501_s_at) / Fold change /veh IGFBP7 (11715501_s_at) / RFU REEP3 (11722064_at) / Fold change /veh REEP3 (11722064_at) / RFU IGLL1 (11728026_x_at) / Fold change /veh IGLL1 (11728026_x_at): dose or concentration left out as unconfirmed
Details: MV-4-11 cells, 48 hours

Nc1ncn([C@@H]2O[C@H](CO)[C@@H](O)[C@H]2O)c(=O)n1 [azacitidine]
RFU SRD5A1 (11742802_a_at): 51.32 RFU

Reference: PMC5218480 (PLoS ONE, 2017)
